Values quoted from earlier work in patent publication US20120059599A1, “HYBRID FRAGMENT-LIGAND MODELING FOR C[…] COMPOUNDS” (UNIVERSITY OF LOUISVILLE, priority 2010, published 2012).

Tests used:
Salmonella = conditions: reported in the CPDB
humans = conditions: IARC
[1] = has been demonstrated
experimental animals = conditions: IARC
mammary = conditions: reported in the CPDB
estrogen receptor = conditions: has been demonstrated

| Compound | Salmonella mutagenicity (Salmonella) | evidence to determine carcinogenicity in humans (humans) | genotoxic carcinogen [1] | evidence for carcinogenicity in experimental animals (experimental animals) | mammary carcinogenicity (mammary) | estrogen receptor ligand (estrogen receptor) |
| --- | --- | --- | --- | --- | --- | --- |
| CCNc1nc(Cl)nc(NC(C)C)n1 [Atrazine] | non-mutagen | – | – | – | – | – |
| Cn1c(N)nc2ncc(-c3ccccc3)cc21 [PhIP, 2-amino-1-methyl-6-phenylimidazo[4,5-b]pyridine] | mutagen | inadequate evidence | genotoxic carcinogen | antiquated evidence | mammary carcinogen | estrogen receptor ligand |
